Assay results published in ChEMBL document CHEMBL1153038, “Eusynstyelamides A, B, and C, nNOS inhibitors, from the ascidian Eusynstyela latericius” (J Nat Prod, 2009).

What was measured:
[1] = test system: HCT-116; assay: Cytotoxicity against human HCT116 cells; type: functional, cell-based
[2] = target: Nitric oxide synthase 1 (Rattus norvegicus, UniProt P29476); assay: Inhibition of rat cerebella nNOS synthase assessed as [3H]arginine to [3H]citrulline conversion by microbeta scintillation counting
Chain of Nitric oxide synthase 1 (P29476 whole entry): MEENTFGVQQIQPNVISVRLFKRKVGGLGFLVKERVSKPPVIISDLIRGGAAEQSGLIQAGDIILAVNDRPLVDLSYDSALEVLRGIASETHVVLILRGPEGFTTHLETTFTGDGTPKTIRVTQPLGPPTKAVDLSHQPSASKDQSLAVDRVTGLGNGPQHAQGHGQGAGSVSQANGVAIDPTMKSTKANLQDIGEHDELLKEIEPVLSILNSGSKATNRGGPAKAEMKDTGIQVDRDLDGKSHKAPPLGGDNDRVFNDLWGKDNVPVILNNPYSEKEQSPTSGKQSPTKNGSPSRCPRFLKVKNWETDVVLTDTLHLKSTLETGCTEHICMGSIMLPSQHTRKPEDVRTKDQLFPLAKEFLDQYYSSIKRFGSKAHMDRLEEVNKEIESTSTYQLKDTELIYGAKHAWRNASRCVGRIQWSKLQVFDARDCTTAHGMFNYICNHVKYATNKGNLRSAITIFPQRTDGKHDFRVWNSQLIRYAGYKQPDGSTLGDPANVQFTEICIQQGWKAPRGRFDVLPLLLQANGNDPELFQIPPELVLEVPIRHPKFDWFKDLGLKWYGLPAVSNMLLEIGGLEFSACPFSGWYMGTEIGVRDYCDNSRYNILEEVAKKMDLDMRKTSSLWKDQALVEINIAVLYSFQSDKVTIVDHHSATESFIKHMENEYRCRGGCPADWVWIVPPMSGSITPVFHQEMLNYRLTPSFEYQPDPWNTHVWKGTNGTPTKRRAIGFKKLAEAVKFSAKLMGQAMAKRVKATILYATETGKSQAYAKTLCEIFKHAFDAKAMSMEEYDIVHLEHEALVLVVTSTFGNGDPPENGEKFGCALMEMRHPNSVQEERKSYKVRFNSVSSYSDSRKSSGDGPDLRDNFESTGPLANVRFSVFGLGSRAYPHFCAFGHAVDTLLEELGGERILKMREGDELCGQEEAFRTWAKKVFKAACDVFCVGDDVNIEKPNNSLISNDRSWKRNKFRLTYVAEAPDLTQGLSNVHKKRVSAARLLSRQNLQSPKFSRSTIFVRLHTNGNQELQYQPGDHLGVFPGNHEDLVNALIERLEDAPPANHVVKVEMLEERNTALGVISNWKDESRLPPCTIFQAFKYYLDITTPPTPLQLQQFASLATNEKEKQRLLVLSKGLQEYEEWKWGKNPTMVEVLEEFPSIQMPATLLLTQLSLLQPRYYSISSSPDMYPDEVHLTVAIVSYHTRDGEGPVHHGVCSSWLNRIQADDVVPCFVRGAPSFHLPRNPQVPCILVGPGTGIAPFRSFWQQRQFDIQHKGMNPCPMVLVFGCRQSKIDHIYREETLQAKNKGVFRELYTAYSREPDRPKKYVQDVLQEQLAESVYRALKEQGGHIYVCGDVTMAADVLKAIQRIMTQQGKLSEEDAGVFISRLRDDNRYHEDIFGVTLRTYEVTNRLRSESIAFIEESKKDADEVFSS

[3] = test system: MCF7; assay: Cytotoxicity against human MCF7 cells upto […] by SRB assay; type: functional, cell-based
[4] = test system: SF-268; assay: Cytotoxicity against human SF268 cells upto […] by SRB assay; type: functional, cell-based
[5] = test system: NCI-H460; assay: Cytotoxicity against human H460 cells upto […] by SRB assay; type: functional, cell-based
[6] = test system: Staphylococcus aureus; assay: Antibacterial activity against Staphylococcus aureus after 24 hrs by microtiter dilution assay; type: functional, organism-based

Row | SMILES | IC50 [1] [µM] | IC50 [2] [µM] | Activity [3] | Activity [4] | Activity [5] | IC50 [6] [µM]
1 | O=Cc1cc(O)c2nccc3c2c1Nc1ccccc1-3 [STYELSAMINE C] | 1.6 | – | – | – | – | –
2 | CC(=O)NCCc1cc(O)c2nccc3c2c1Nc1ccccc1-3 [STYELSAMINE B] | 1.6 | – | – | – | – | –
3 | N=C(N)NCCCCNC(=O)[C@]1(O)[C@H](c2c[nH]c3cc(Br)ccc23)[C@@](O)(Cc2c[nH]c3cc(Br)ccc23)C(=O)N1CCCCNC(=N)N | – | 41.7 | Not toxic | Not toxic | Not toxic | 19
4 | NCC(O)c1cc(O)c2nccc3c2c1Nc1ccccc1-3 (centres undefined) [STYELSAMINE A] | 1.6 | – | – | – | – | –
5 | NCCc1cc(O)c2nccc3c2c1Nc1ccccc1-3 [STYELSAMINE D] | 1.6 | – | – | – | – | –
6 | N=C(N)NCCCCNC(=O)[C@@]1(O)[C@H](c2c[nH]c3cc(Br)ccc23)[C@](O)(Cc2c[nH]c3cc(Br)ccc23)C(=O)N1CCCCNC(=N)N | – | 5.8 | Not toxic | Not toxic | Not toxic | –
7 | N=C(N)NCCCCNC(=O)C(O)(O)C(c1c[nH]c2cc(Br)ccc12)C(O)(Cc1c[nH]c2cc(Br)ccc12)C(=O)NCCCCNC(=N)N (centres undefined) [EUSYNSTYELAMIDE] | 100 | – | – | – | – | –
8 | N=C(N)NCCCCNC(=O)[C@@]1(O)[C@H](c2c[nH]c3cc(Br)ccc23)[C@@](O)(Cc2c[nH]c3cc(Br)ccc23)C(=O)N1CCCCNC(=N)N | – | 4.3 | Not toxic | Not toxic | Not toxic | 6.5
